In patent US20250250559A1, “METHOD TO ANALYZE AND OPTIMIZE GENE EDITING MODULES AND DELIVERY APPROACHES” (Hoffmann-La Roche Inc., priority 2016, published 2025):
Values joined by “and” are separate entries in the source; they are usually repeats but may differ in a detail not shown here. Equal values may be shown once.

Key:
Format in all cases: cell-based, human
[1] = test system: DPH1 gene; experiment: DT + PM double resistant colony count after DPH1 gene editing (integration with inactivation); details: for # of DT + PM resistant colonies (40,000 seeded cells) / # of DT + PM resistant colonies (40,000 seeded cells) (unheaded second sub-column: mean): DPH1 (gRNA length), TF eff. = 31%; for # of DT + PM resistant colonies (40,000 seeded cells) / # of PM + DT resistant colonies (40,000 seeded cells): MCF7, individual samples A-D; for # of PM + DT resistant colonies (40,000 seeded cells) / # of PM + DT resistant colonies (40,000 seeded cells) (unheaded second sub-column: mean): DPH1 assay (integr. vs. (integr. + k.o.)), TF eff. = 67*%; for # of DT + PM resistant colonies (80,000 seeded cells): DPH1 assay editing entities, MCF-7, individual replicates, TF eff. = 33%
Experimental: MCF7 cells (Brooks, et al. 1973) were originally obtained from ATCC (subsequently propagated in an in-house cell bank) and maintained in RPMI 1641 medium supplemented with 10% FCS, 2 mM L-Glutamine and penicillin/streptomycin at 37° C. and 85% humidity. For transfection of plasmids harboring gene-editing modules, 3,000,000 cells were seeded in a 10 cm diameter culture dish and cultivated at 37° C. and humidified 5% CO2. 24 h after seeding, cells were transfected with 20 μg total DNA using JetPEI (Polyplus) according to the manufacturer's protocol but with an N/P ratio of 6:1. Transfection efficiency was determined after 24 h by flow cytometry (FACS Calibur, BD biosciences) of cells that were transfected with a modified eGFP expression plasmid (Zhang, et al. 1996).
MCF7 cells which have all chromosomal copies of DPH1 or DPH2 inactivated are resistant to diphtheria toxin (Stahl, et al. 2015). Thus, occurrence and frequency of toxin resistant cells/colonies upon CRISPR/Cas inflicted gene inactivation provides a measure for efficiency of inactivation of all gene copies. Therefore, MCF/cells were transfected as described in Example 1 with (i) a GFP expression plasmid as transfection control, (ii) the CRISPR/Cas9 Dph1 or Dph2 knock-out/integration system and (iii) knock-out/integration entities containing a scrambled gRNA to determine Cas9 independent integration frequencies. After determination of transfection efficiency, cells were seeded in 6-well plates. For quantification of homozygous knock-out events by DT 20000 cells were seeded and for quantification of integration events by PM or both events 40000 cells were seeded. RPMI medium was exchanged by RPMI medium containing DT or PM or both toxins 3 days after cell seeding. Exchange of medium was repeated every 2-3 days until all dead cells were removed from the plates and actively growing colonies could be detected via microscopic inspection. Thereafter (between day 12 and day 14 after start of toxin exposure), cells were washed 3 times with PBS and subsequently stained with ice cold methylene blue (0.2% in 50% EtOH). Methylene blue solution was subsequently removed and the plates were carefully washed under running water. Finally, cell colonies were counted under the microscope with a 5 mm grid foil.
CRISPR/Cas module for targeted integration contains a puromycin (PM) resistance gene expression cassette without promoter to avoid transient expression. Thus, detection of integration of recombinant sequences into the genome was detected by determining sensitivity of cells towards PM. A concentration of 500 ng/μL PM (which quantitatively eliminates wildtype MCF7 cells) was applied to select MCF7 cells with stably integrated expression cassettes. PM-resistant colonies selected with the same procedure as described above for the DT selection and visualized and quantified (between 12 and 14 days after start of selection) in the same manner as described above for toxin resistant colonies. Number of PM resistant colonies obtained with non-target guide sequences (scrambled gRNA, FIG. 1) reflect the nonspecific integration background. Increase in colonies (above nonspecific background) obtained with target-gene gRNAs which are PM-resistant but toxin sensitive reflect integration into just one target allele, leaving the other dph1 or dph2 allele unaffected. PM resistant colonies that are also DT resistant have the expression cassette integrated into at least target allele and the other allele either inactivated or inactivated accompanied by yet another integration event.

[2] = test system: DPH1 gene; experiment: DT resistant colony count after DPH1 gene editing (homozygous gene inactivation); details: for # of DT resistant colonies (mean of the samples) / # of DT resistant colonies: TF eff. = 38%; for # of DT resistant colonies: DPH1 assay (integr. vs. k.o.), individual samples; for # of DT resistant colonies (40,000 seeded cells): DPH1 assay editing entities, MCF-7, individual replicates, TF eff. = 33%
[3] = test system: DPH1 gene; experiment: PM resistant colony count after DPH1 gene editing (PAC cassette integration); details: for # of PM resistant colonies (40,000 seeded cells): MCF7, individual samples A-D; for # of PM resistant colonies (mean of the samples) / # of PM resistant colonies: TF eff. = 38%; for # of PM resistant colonies: DPH1 assay (integr. vs. k.o.), individual samples; for # of PM resistant colonies (80,000 seeded cells): DPH1 assay editing entities, MCF-7, individual replicates, TF eff. = 33%
Experimental: MCF7 cells (Brooks, et al. 1973) were originally obtained from ATCC (subsequently propagated in an in-house cell bank) and maintained in RPMI […] medium supplemented with 10% FCS, 2 mM L-Glutamine and penicillin/streptomycin at 37° C. and 85% humidity. For transfection of plasmids harboring gene-editing modules, 3,000,000 cells were seeded in a 10 cm diameter culture dish and cultivated at 37° C. and humidified 5% CO2. 24 h after seeding, cells were transfected with 20 μg total DNA using JetPEI (Polyplus) according to the manufacturer's protocol but with an N/P ratio of 6:1. Transfection efficiency was determined after 24 h by flow cytometry (FACS Calibur, BD biosciences) of cells that were transfected with a modified eGFP expression plasmid (Zhang, et al. 1996).
Plasmids encoding CRISPR/Cas9 gene-editing entities (i.e. knock-out and integration systems) against Dph1 (gRNA target sequence: […] (SEQ ID NO: 01) derived from RefSeq: NM_001383) and Dph2 (gRNA target sequence: […] (SEQ ID NO: 02) derived from RefSeq: NM_001039589, NM_001384), and scrambled control (gRNA sequence: […] (SEQ ID NO: 03)) were obtained from OriGene. This system comprises one plasmid expressing a ˜100 nt gRNA under control of a U6 promoter as well as Cas9 nuclease under control of a CMV promoter and a Donor plasmid with a promoter-less GFP/PM expression cassette flanked by homologous arms to the target gene (Dph1 or Dph2). Additional Dph1 gRNA sequence variants of different sizes (OriGene) […]
MCF7 cells which have all chromosomal copies of DPH1 or DPH2 inactivated are resistant to diphtheria toxin (Stahl, et al. 2015). Thus, occurrence and frequency of toxin resistant cells/colonies upon CRISPR/Cas inflicted gene inactivation provides a measure for efficiency of inactivation of all gene copies. Therefore, MCF/cells were transfected as described in Example 1 with (i) a GFP expression plasmid as transfection control, (ii) the CRISPR/Cas9 Dph1 or Dph2 knock-out/integration system and (iii) knock-out/integration entities containing a scrambled gRNA to determine Cas9 independent integration frequencies. After determination of transfection efficiency, cells were seeded in 6-well plates. […] RPMI medium was exchanged by RPMI medium containing DT or PM or both toxins 3 days after cell seeding. Exchange of medium was repeated every 2-3 days until all dead cells were removed from the plates and actively growing colonies could be detected via microscopic inspection. Thereafter (between day 12 and day 14 after start of toxin exposure), cells were washed 3 times with PBS and subsequently stained with ice cold methylene blue (0.2% in 50% EtOH). Methylene blue solution was subsequently removed and the plates were carefully washed under running water. Finally, cell colonies were counted under the microscope with a 5 mm grid foil.
CRISPR/Cas module for targeted integration contains a puromycin (PM) resistance gene expression cassette without promoter to avoid transient expression. Thus, detection of integration of recombinant sequences into the genome was detected by determining sensitivity of cells towards PM. A concentration of […] PM (which quantitatively eliminates wildtype MCF7 cells) was applied to select MCF7 cells with stably integrated expression cassettes. PM-resistant colonies selected with the same procedure as described above for the DT selection and visualized and quantified (between 12 and 14 days after start of selection) in the same manner as described above for toxin resistant colonies. Number of PM resistant colonies obtained with non-target guide sequences (scrambled gRNA, FIG. 1) reflect the nonspecific integration background. Increase in colonies (above nonspecific background) obtained with target-gene gRNAs which are PM-resistant but toxin sensitive reflect integration into just one target allele, leaving the other dph1 or dph2 allele unaffected. […]

[4] = DPH1 assay (integr. vs. k.o.), 10,000 seeded cells
[5] = DPH1 assay (integr. vs. k.o.), 40,000 seeded cells
[6] = MCF7, 10,000 seeded cells, listed as CRISPR Cas9 Dph1 gRNA
[7] = MCF7, 40,000 seeded cells, listed as CRISPR Cas9 Dph1 gRNA
[8] = DPH1 (gRNA length), TF eff. = 31%
[9] = DPH1 assay (integr. vs. (integr. + k.o.)), TF eff. = 67*%
[10] = DPH1 assay (integr. vs. k.o.), 20,000 seeded cells

Substance | # of DT + PM resistant colonies (40,000 seeded cells) [1] | # of DT + PM resistant colonies (40,000 seeded cells) (unheaded second sub-column: mean) [1] | # of PM + DT resistant colonies (40,000 seeded cells) [1] | # of PM + DT resistant colonies (40,000 seeded cells) (unheaded second sub-column: mean) [1] | # of DT + PM resistant colonies (80,000 seeded cells) [1] | # of DT resistant colonies (mean of the samples) [2, 4] | # of DT resistant colonies (mean of the samples) [2, 5] | # of DT resistant colonies ([2]; MCF7, 40,000 seeded cells) | # of DT resistant colonies (40,000 seeded cells) [2] | # of PM resistant colonies (40,000 seeded cells) (unheaded second sub-column: mean) [3, 8] | # of PM resistant colonies (40,000 seeded cells) (unheaded second sub-column: mean) [3, 9] | # of PM resistant colonies (mean of the samples) [3, 4] | # of PM resistant colonies (mean of the samples) [3, 10] | # of PM resistant colonies (mean of the samples) [3, 5] | # of PM resistant colonies ([3]; MCF7, 10,000 seeded cells) | # of PM resistant colonies ([3]; MCF7, 20,000 seeded cells) | # of PM resistant colonies ([3]; MCF7, 40,000 seeded cells) | # of PM resistant colonies (80,000 seeded cells) [3] | also measured
20 mer SpCas9 DPH1 gRNA: Plasmids encoding SpCas9 and Dph1 gRNA (target CAGGGCGGCCGAGACGGCCC, SEQ ID NO: 01) plus PAC donor plasmid, OriGene | 6 and 5 and 7 (2×) | 6 | 15 and 13 and 11 and 12 | 13 | 5 and 4 and 3 | 218 | 947 | 995 and 942 and 899 and 950 | 476 and 492 and 468 and 472 | 15 | 24 | 9 | 13 | 24 | 7 and 10 (2×) and 29 | 18 and 13 (2×) and 6 | 29 and 12 and 30 and 24 | 14 and 11 and 9 and 10 | # of DT + PM resistant colonies (40,000 seeded cells) ([1]; listed as 20 mer Dph1 CRISPR Cas9 gRNA): 6 and 5 and 7 (2×); # of PM + DT resistant colonies (40,000 seeded cells) ([1]; listed as Dph1 CRISPR Cas9 gRNA): 15 and 13 and 11 and 12; # of DT resistant colonies [2, 6]: 201 and 224 and 219; # of DT resistant colonies [2, 7]: 995 and 942 and 899 and 950; # of PM resistant colonies (40,000 seeded cells) [3, 8]: 16 (2×) and 20 and 8; # of PM resistant colonies (40,000 seeded cells) ([3]; DPH1 (gRNA length), TF eff. = 31%, listed as 20 mer Dph1 CRISPR Cas9 gRNA): 16 (2×) and 20 and 8; # of PM resistant colonies (40,000 seeded cells) [3, 9]: 25 (2×) and 22 and 24; # of PM resistant colonies (40,000 seeded cells) ([3]; DPH1 assay (integr. vs. (integr. + k.o.)), TF eff. = 67*%, listed as Dph1 CRISPR Cas9 gRNA): 25 (2×) and 22 and 24; # of PM resistant colonies [3, 6]: 7 and 10 (2×); # of PM resistant colonies ([3]; MCF7, 20,000 seeded cells, listed as CRISPR Cas9 Dph1 gRNA): 18 and 13 (2×) and 6; # of PM resistant colonies [3, 7]: 29 and 12 and 30 and 24; integration efficacy in dependence on gRNA length ([3]; PMr colonies): Targeted integration clearly above background was observed
20 mer SpCas9 scRNA: Scrambled control gRNA GCACTACCAGAGCTAACTCA (SEQ ID NO: 03) with SpCas9 and donor plasmid [reference compound] | 0 | 0 | 0 | 0 | 0 | 0 | 0 | 0 | 0 | 8 | 11 | 3 | 9 | 12 | 3 (2×) and 2 and 4 | 11 and 7 and 10 and 9 | 17 and 13 and 9 and 10 | 4 and 3 and 5 | # of DT resistant colonies ([2]; MCF7, 10,000 seeded cells): 0; # of PM resistant colonies (40,000 seeded cells) ([3]; DPH1 (gRNA length), TF eff. = 31%, listed as 20 mer scRNA): 7 and 6 and 9 and 10; # of PM resistant colonies (40,000 seeded cells) ([3]; DPH1 assay (integr. vs. (integr. + k.o.)), TF eff. = 67*%, listed as 20 mer scRNA): 10 (2×) and 9 and 16; # of PM resistant colonies (40,000 seeded cells) ([3]; DPH1 assay (integr. vs. (integr. + k.o.)), TF eff. = 67*%, listed as SCRNA): 16; # of PM resistant colonies (40,000 seeded cells) ([3]; DPH1 assay (integr. vs. (integr. + k.o.)), TF eff. = 67*%, listed as scRNA): 10 (2×) and 9; # of PM resistant colonies ([3]; MCF7, 10,000 seeded cells, listed as CRISPR Cas9 SCRNA): 3 (2×) and 2 and 4; # of PM resistant colonies ([3]; MCF7, 20,000 seeded cells, listed as CRISPR Cas9 SCRNA): 11 and 10 and 9; # of PM resistant colonies ([3]; MCF7, 20,000 seeded cells, listed as CRISPR Cas9 scRNA): 7; # of PM resistant colonies ([3]; MCF7, 40,000 seeded cells, listed as CRISPR Cas9 SCRNA): 17 and 9 and 10; # of PM resistant colonies ([3]; MCF7, 40,000 seeded cells, listed as CRISPR Cas9 scRNA): 13; fold less PMr colonies than with DPH1-specific gRNA ([3]; otherwise identical conditions): 2 fold
